Test results reported in patent US11878013B2, “Isoquinoline derivative, preparing method thereof, and pharmaceutical composition for preventing or treating autophagy related diseases containing the same as an active ingredient” (Korea Research Institute of Chemical Technology, priority 2021, dated 2024).

Assays:
zebrafish = assay: Whitening effect: melanin synthesis / melanocyte formation in zebrafish; format: in vivo
Source text: When observing the regeneration of melanin pigment, after inhibiting the formation of melanin pigment, it can be investigated by limiting it to the melanocyte generation pathway, and it is easy to observe the melanin synthesized in the initial stage of development. Therefore, zebrafish is more useful for the study of melanin pigment changes compared to other animal models (Logan D W, Burn S F, Jackson I J. (2006) Regulation of pigmentation in zebrafish melanophores. Pigment Cell Res. 2006 June; 19(3):206-13.).
Particularly, zebrafish fertilized eggs 10 hours after fertilization were placed in a 24-well plate (10 eggs/well), and 1 ml of egg water was added to each well of the plate. The compound of Example 1 was added to each well at the concentrations of 0.1 μM and 1 μM, so that the final volume of each well was 2 ml. Then, each 24-well plate was wrapped in foil to block light, and then incubated in a 28° C. incubator for 22 hours. At 32 hours after fertilization, in order to photograph the formation of black melanocytes, the chorion of the developing embryo was peeled off using a forcep (Fine Science Tools). After anesthetizing the developing embryo with Tricaine (4 g/L), the embryo was photographed on 3% methyl cellulose. As the equipment for photographing the developing embryo, a LEICA MZ10F fluorescence microscope, a LEICA DFC425 camera, and Leica Application Suite software (v4.5) were used. In all the experimental procedures, egg water sterilized after dissolving 60 mg/L of sea salt (Sigma-Aldrich, S9883) in tertiary distilled water was used as a solution for culturing the developing embryo. As a control group, a solvent control group (0.4% DMSO) and phenylthiourea (200 μM PTU), known as a tyrosinase inhibitor, were used (FIG. 6A).
In the same manner, experiments were performed with the compound of Comparative Example 1 at the concentrations of 0.5 μM, 1 μM, and 5 μM, and the results are shown in FIG. 6B.
On the other hand, in order to confirm the ability of the compound of the present invention to inhibit the melanin synthesis of the already generated melanocytes, the following experiment was performed with juvenile fish 60 hours after fertilization. Particularly, juvenile fish 60 hours after fertilization were placed in a 24-well plate (10/well), and 1 ml of egg water was added to each well of the plate. The compound of Example 1 was added to each well at the concentrations of 10 μM and 20 μM, so that the final volume of each well was 2 ml. Then, each 24-well plate was wrapped in foil to block light, and then incubated in a 28° C. incubator for 12 hours. In order to photograph the formation of black melanocytes, the developing embryo was anesthetized with Tricaine (4 g/L), and then the embryo was photographed on 3% methyl cellulose. […]

NO production = NO production in LPS-treated Raw 264.7 macrophages (Griess reagent); format: cell-based, mouse
Protocol: In order to confirm the effect of the compound of Example 1 of the present invention on NO production in Raw 264.7 mouse macrophages in which inflammatory response was induced by LPS, an experiment was performed as follows.
(§1) Raw 264.7 mouse macrophages were aliquoted in a 96-well plate at the density of 1×10^5 cells/well and stabilized in a 37° C., 5% CO2 incubator for 24 hours. The Raw 264.7 cells were treated with the compound of Example 1 by concentration. After 1 hour, the cells were treated with 1 ug/ml of LPS and cultured for 24 hours. For the measurement of NO production, 40 mg/ml of Griess reagent was prepared and it was mixed with the culture supernatant at the same ratio. The mixture was reacted at room temperature for 15 minutes, and absorbance was measured at 540 nm. Based on the results obtained therefrom, the cell viability and NO production rate were expressed as percentages in terms of LPS.

[1] = test system: Raw 264.7 mouse macrophages; assay: Cell viability of LPS-treated Raw 264.7 macrophages; format: cell-based
Protocol: as §1

hERG channel protein [2] = target: T1, hERG channel protein (Homo sapiens, UniProt Q12809); assay: hERG ligand binding test (fluorescence polarization); details: at 10 μM
T1 construct: expressed in transfected cells; host or cells: HEK-293
Protocol: (§2) In order to evaluate the possibility of inducing cardiotoxicity of the compound of Example 1 of the present invention in vivo, the inhibitory potential to the hERG (human ether-a-go-go related gene) K^+ channel protein, known as a main cause of arrhythmias, was tested.
First, a ligand binding test was performed to evaluate the binding force of the compound of Example 1 binding to the hERG channel protein in vitro. A biological membrane containing the hERG channel protein was aliquoted in a 384-black well plate (10 μl/well) at room temperature, and DMSO, E-4031 (positive control), and the compound of Example 1 prepared to be 4 times the final test concentration were added thereto (5 μl/well). A tracer material with a fluorescent material attached to astemizole, known as a selective binding substance to the hERG channel protein, was dispensed into a mixture of the two solutions (5 μl/well), and then incubated for 2 hours at room temperature where light was blocked. In order to excite the tracer material included in the reaction solution, the light of 530 nm was irradiated and the light of 585 nm returned back was measured by the polarization method. […] The binding force of the test material to the hERG protein was expressed as the inhibition rate (%) compared to the group treated with DMSO.

hERG channel protein [3] = target: T1, hERG channel protein; assay: hERG patch clamp test in HEK-293 cells overexpressing hERG; format: cell-based; details: at 10 μM
Protocol: as §2
Next, in order to evaluate the activity of the hERG channel protein using an electrophysiological method, a patch clamp test was performed. The activity of the hERG channel protein was measured using the HEK-293 cell line overexpressing the hERG channel protein. The cells were acclimatized and cultured in a humidified 37° C. 5% CO2 incubator, washed with PBS (phosphate buffer solution) at the time of growth that occupies 70-80% of the culture dish every 2-3 days, and then subcultured by treating with Trypsin-EDTA. For the test, 2×10^5 cells were aliquoted in a 60 mm cell culture dish, and then cultured in a humidified 5% CO2 incubator for 48 hours. The cultured cells were detached by treating Trypsin-EDTA (Gibco, USA), and the flow of K^+ by the hERG channel protein was measured by applying an automated patch clamp equipment (PatchXpress, Molecular Device).

T1 sequence (Q12809 whole entry): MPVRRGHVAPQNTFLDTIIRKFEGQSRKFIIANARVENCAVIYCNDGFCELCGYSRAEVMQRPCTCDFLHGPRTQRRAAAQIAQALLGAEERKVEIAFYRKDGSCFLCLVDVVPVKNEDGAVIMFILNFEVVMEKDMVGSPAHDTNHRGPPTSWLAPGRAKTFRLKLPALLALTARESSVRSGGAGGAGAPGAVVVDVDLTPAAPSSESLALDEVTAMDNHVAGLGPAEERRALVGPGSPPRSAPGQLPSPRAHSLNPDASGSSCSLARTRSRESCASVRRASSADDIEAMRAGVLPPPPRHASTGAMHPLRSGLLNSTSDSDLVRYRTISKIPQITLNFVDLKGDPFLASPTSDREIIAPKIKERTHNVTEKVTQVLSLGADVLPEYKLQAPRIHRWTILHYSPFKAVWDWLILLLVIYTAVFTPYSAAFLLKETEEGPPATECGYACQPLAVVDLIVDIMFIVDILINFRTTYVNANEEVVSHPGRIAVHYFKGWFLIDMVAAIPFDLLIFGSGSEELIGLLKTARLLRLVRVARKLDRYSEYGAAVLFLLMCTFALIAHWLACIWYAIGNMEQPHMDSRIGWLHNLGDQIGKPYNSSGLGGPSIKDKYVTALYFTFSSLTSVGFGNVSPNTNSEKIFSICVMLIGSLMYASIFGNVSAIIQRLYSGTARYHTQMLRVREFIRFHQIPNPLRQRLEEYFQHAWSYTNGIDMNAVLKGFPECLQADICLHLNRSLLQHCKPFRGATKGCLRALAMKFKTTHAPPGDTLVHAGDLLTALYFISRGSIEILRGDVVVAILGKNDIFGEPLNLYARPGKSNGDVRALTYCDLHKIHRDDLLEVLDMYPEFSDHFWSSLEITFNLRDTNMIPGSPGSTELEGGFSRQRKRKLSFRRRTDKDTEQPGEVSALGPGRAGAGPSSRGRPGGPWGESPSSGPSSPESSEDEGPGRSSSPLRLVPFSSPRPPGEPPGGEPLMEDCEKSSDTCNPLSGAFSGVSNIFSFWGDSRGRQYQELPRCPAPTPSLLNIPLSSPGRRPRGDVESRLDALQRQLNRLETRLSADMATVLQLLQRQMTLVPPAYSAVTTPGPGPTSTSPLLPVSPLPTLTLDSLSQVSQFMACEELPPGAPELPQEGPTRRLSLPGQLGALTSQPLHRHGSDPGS

SMILES: [O-][S+](c1ccc(F)cc1)c1nccc2ccccc12 (stereo not drawn) [Example 1, 1-((4-Fluorophenyl)Sulfinyl)Isoquinoline]
- synthesis of melanin (zebrafish; 1 μM, treated 10 hours after fertilization, read at 32 hours after fertilization, PTU 200 μM as control): level similar to that in the group treated with PTU
- melanin synthesis inhibitory effect (zebrafish; 20 μM, treated 60 hours after fertilization, read at 72 hours after fertilization, compared to PTU 0.2 mM): superior melanin synthesis inhibitory effect compared to PTU
- superior activity compared to Comparative Example 1 (melanin synthesis inhibition) (zebrafish; 32 hours after fertilization, 1 μM vs 5 μM for PTU-like effect): ≥ 5 fold
- NO production (% of control) (NO production; 1 ug/ml LPS, 24 hours, Raw 264.7 cells, test concentration not given): 40 % of control
- NO production (NO production; LPS-treated Raw 264.7, 0.1, 0.5, 1, 10 and 100 μM, effect increased with concentration (FIG. 3)): inhibited
- cytotoxicity ([1]; LPS-treated Raw 264.7, 0.1, 0.5, 1, 10 and 100 μM (FIG. 3)): no significant cytotoxicity
- Cell viability (% of control) ([1]; LPS-treated Raw 264.7 cells, 24 hours, test concentration not given): 90 % of control
- inhibition of the binding of the hERG channel protein (hERG channel protein [2]): about 10%
- inhibition of the activity of the hERG channel protein (hERG channel protein [3]): about 10%
